From patent US20190353647A1, “NOVEL REAL-TIME MULTIPLEXED, MULTI-COLOR BIOLUMINESCENCE RESONANCE ENERGY TRANSFER ASSAY, APPARATUS, AND USES THEREOF” (Universite de Bordeaux, priority 2016, published 2019)

Biological target: T1, TRPV1 (Homo sapiens, UniProt Q8NER1)
T1 construct: expressed in transfected cells; host or cells: HEK293T
Experiment: Intermolecular BRET assay, TRPV1-Luc/YFP-CaM in HEK293T cells
Format: cell-based
Settings: for Effect on CAPS-induced BRET increase: intermolecular test
Description: In order to generate the BRET constructs, super Yellow Fluorescent Protein 2 and Renilla Luciferase II were used to improve the brightness of the assay. They were referred as YFP and Luc for short in the rest of the manuscript. The cDNA of Luc and YFP were first cloned together using a three-piece ligation in the BamHI/XhoI site of pcDNA3.1(+) (Invitrogen, Carlsbad, Calif., USA), yielding two expression vectors pcDNA3.1 YFP-Luc where YFP was cloned in-fusion at the N-terminal of Luc, and pcDNA3.1 Luc-YFP where Luc was cloned in-fusion at the N-terminal of YFP. Both YFP and Luc were amplified by PCR from the pcDNA3-YFP-EPAC-Luc vector. Luc was cloned either at the N-terminal of YFP as a HindIII-EcoRI fragment (primers used: “Luc_HindIII_ATGN-term sense” and “Luc_no Stop_EcoRI_N-term antisense”) or at the COOH-terminal of YFP as an EcoRI-XhoI fragment (primer used: “Luc_EcoRI_ATG_C-term sense” and “Luc_XhoI_Stop_C-term antisense”). In parallel, YFP was cloned either at the N-terminal of Luc as a HindIII-EcoRI fragment (primers used: “YFP_HindIII_ATG_N-term sense” and “YFP_no Stop_EcoRI_N-term antisense”) or at the COOH-terminal of Luc as a EcoRI-XhoI fragment (primer used: “YFP_EcoRI_ATG_C-term sense” and “YFP_XhoI_Stop_C-term antisense”). The sequence joining Luc and YFP sequence encoded […] (SEQ ID NO: 18) as a linker, and contained an AgeI restriction site. The YFP-hTRPV1-Luc expression vector was obtained by subcloning the human TRPV1 cDNA from the pDONR201-hTRPV1 vector (Harvard Medical School PlasmID Repository, clone HsCD00081472) as an EcoRI PCR fragment in the EcoRI site of the vector pcDNA3.1 YFP-Luc (primer used: “hTRPV1_EcoRI_Fus_Sense” and “hTRPV1_EcoRI_Fus_antisense”). The hTRPV1-Luc expression vector was obtained by subcloning the cDNA of hTRPV1 as a HindIII-EcoRI fragment in place of the YFP in the HindIII-EcoRI site of the pcDNA3.1 YFP-Luc vector (primer used: “hTRPV1_HindIII_ATG_Sense” and “hTRPV1_EcoRI_Fus_antisense”). The Luc-hTRPV3 expression vector was obtained by subcloning the cDNA of hTRPV3 (Harvard Medical School PlasmID Repository, clone HsCD00341603) as a AgeI-XhoI fragment in place of the YFP in the AgeI-XhoI sites of the pcDNA3.1 Luc-YFP vector (primer used: “hTRPV3_AgeI_ATG_Sense” and “hTRPV3_Stop_XhoI_antisense”). The hTRPV4-Luc expression vector was obtained by subcloning the cDNA of hTRPV4 as a BamHI-AgeI fragment in place of the YFP in the BamHI-AgeI site of the pcDNA3.1 YFP-Luc vector (primer used: “hTRPV4_BamHI_ATG_Sense” and hTRPV4_AgeI_Fus_antisense”). In each case, the sequence joining the cDNA of interest and either Luc or YFP sequence encoded […] (SEQ ID NO: 18) as a linker.
The cDNA of mAmetrine (Plasmid #54660) and LssmOrange (Plasmid #37130) were obtained from AddGene plasmid repository. The cDNA of aquamarine, mAmetrine and LssmOrange were all subcloned as a HindIII-EcoRI fragment in place of the YFP in the HindIII-EcoRI site of the pcDNA3.1 YFP-Luc vector (primer used: “YFP_HindIII_ATG_N-term sense” and “YFP_no Stop_EcoRI_N-term antisense”) to yield pcDNA3.1 FP-Luc expression vectors (“FP” being any fluorescent protein between aquamarine, mAmetrine and LssmOrange). […] A similar strategy was used to obtain the FP-CaM expression vector using the pcDNA3.1 FP-Luc expression vector instead of the pcDNA3.1 YFP-Luc.
HEK293T cells were maintained in Dulbecco's modified Eagle's medium-high Glucose (DMEM) (D6429, Sigma) supplemented with 10% fetal bovine serum, 100 units mL-1 penicillin and streptomycin. Twenty-four hours before transfection, cells were seeded at a density of 500,000 cells in 6-well dishes. Transient transfections were performed using polyethylenimine (PEI, linear, Mr 25,000; catalogue number 23966 Polysciences, Inc., Warrington, Pa., USA) with a PEI:DNA ratio of 4:1. Usually, 0.1-0.25 μg of the donor constructions and 1.75-1.9 μg of the acceptors constructions were transfected for the BRET measurement.

[1] = TRPV1-Luc/YFP-CaM titration, presence vs absence of CAPS
[2] = temperature rise from 25 to 42° C., TRPV1-Luc/YFP-CaM

T1 sequence (Q8NER1 whole entry): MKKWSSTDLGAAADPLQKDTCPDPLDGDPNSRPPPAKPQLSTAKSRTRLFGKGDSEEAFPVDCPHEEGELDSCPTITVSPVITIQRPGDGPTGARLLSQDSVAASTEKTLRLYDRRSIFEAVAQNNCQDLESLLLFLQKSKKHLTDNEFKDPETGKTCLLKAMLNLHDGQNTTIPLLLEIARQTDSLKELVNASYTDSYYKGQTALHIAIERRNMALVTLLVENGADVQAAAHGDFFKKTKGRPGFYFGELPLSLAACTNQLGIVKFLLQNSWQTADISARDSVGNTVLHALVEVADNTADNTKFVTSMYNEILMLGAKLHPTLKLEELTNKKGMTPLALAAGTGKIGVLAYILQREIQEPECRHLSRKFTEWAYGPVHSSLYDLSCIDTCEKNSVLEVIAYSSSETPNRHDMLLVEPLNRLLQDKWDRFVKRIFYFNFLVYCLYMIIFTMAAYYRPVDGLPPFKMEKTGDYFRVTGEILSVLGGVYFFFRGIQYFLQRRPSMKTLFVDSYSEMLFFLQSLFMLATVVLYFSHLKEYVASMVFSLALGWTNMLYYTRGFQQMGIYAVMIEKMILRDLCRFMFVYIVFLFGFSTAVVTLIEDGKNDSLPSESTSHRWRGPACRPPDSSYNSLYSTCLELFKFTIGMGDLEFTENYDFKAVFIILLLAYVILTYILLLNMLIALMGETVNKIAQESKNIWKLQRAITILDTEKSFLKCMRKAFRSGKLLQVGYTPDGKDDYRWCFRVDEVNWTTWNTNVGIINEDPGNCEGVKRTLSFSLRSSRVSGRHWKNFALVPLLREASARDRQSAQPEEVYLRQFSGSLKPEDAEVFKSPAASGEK

## COc1cc(CNC(=O)CCCC/C=C/C(C)C)ccc1O [CAPS, Capsaicin]
HEK293T, dose-response, FIG. 1
  Sensitivity of TRPV1-Luc/YFP-CaM interaction: sensitive
TRPV1-Luc/YFP-CaM
  Change of basal BRET signal: increased with a first order kinetic
[1]
  BRET50 (concentration of YFP-CaM needed to reach 50% of maximal BRET signal): diminished
  Maximal BRET signal in BRET titration curves: dramatically increased
[2]
  Change in CAPS potency on temperature rise: leftward shift
  Change in maximal efficacy on temperature rise: increase

## Oc1cc2c(cc1O)CN(C(=S)NCCc1ccc(Cl)cc1)CCC2 [CPZ, Capsazepine]
TRPV1-Luc/YFP-CaM, cells preincubated with the compound
  BRET signal on heating from 25 to 50° C. after preincubation: no significant increase
TRPV1-Luc/YFP-CaM
  Effect on CAPS-induced BRET increase: inhibited

## CC(=O)Nc1nc2c(Oc3cc(-c4ccc(C(F)(F)F)cc4)ncn3)cccc2s1 [AMG517]
TRPV1-Luc/YFP-CaM
  Effect on CAPS-induced BRET increase: inhibited
